The values that follow come from patent US8168233B2 (Amylin Pharmaceuticals, Inc., priority 2002, dated 2012).

The subject of one data set is soleus muscle. The conditions noted are these: read-out: EC50 in the soleus muscle assay; typical range of amylin preparations; […] insulin.
The subject of data set [1] is caerulein-induced pancreatitis in ICR(CD-1) male mice. In words: Effect of amylin on caerulein-induced pancreatitis (plasma amylase). In kind it is in vivo. The settings on record: amylin at levels as low as 0.01 μg injected at t=−5 min; plasma at 9 hours after first caerulein injection. The method, then: Male ICR mice, weighing approximately 20 g, were fasted overnight and throughout the experiment, but were allowed access to water ad libitum. […] At t=0, 0.01 μg/kg of caerulein in all but the normal group of mice. The dosing regimen for caerulein was repeated 3 times at 2 hour intervals. At t=9 hours, i.e., 9 hours after the first caerulein injection, the mice were bleed (orbital sinus) and the plasma assayed for amylase (Amylase 3 assay kit, Sigma Diagnostics Catalog #577-3, Sigma Diagnostics, St. Louis, Mo., USA).

The subject of the next data set is rat pancreas. Briefly: Inhibition of CCK-8 stimulated lipase and amylase secretion in rat pancreas (pancreatic juice collection in anesthetized rats). In kind it is in vivo. The conditions noted are these: for Amylase, % from CCK-8 stimulated / Lipase, % from CCK-8 stimulated / Pancreatic flow, % from CCK-8 stimulated: decrease versus CCK-8 alone. The method, then: Tracheotomy and cannulation of the right femoral artery were performed and body temperature was controlled with a thermoregulator (Model 73A, YSI, Yellow Springs, Ohio, USA) that switched a heated operating table. The femoral arterial line, used for blood sampling, was perfused with heparinized saline (2 u/ml) and connected to a pressure transducer for blood pressure recording (Spectramed P23XL transducer, Model 13-4615-58 amplifier, Gould, Cleveland, Ohio, USA). Through a midline incision two polyethylene cannulae were inserted into the common bile-pancreatic duct at a point about 0.5 cm above where the duct enters the pancreas. The first cannula was inserted up toward the liver to collect bile. The other end of this cannula was placed into the duodenum through a small incision in the duodenum. Thus, bile flowed directly from the liver to the small intestine, being shunted away from the pancreas completely.
A second polyethylene cannula was inserted into the common bile-pancreatic duct near the first but in the opposite direction to collect pancreatic juice. The other end of the pancreatic duct was tied off with a suture just at the point where it enters the duodenum, forcing any pancreatic juice produced to flow through the second cannula for collection. Pancreatic juice was collected every 15 min from −30 to 90 min. […] The volume of juice was measured and aliquots taken for enzymes determination. Amylase and lipase, which are secreted in pancreatic juice in an active form, were tested using diagnostic kits (Lipase-PS assay kit, Sigma Diagnostics Catalog #805-A and Amylase 3 assay kit, Sigma Diagnostics Catalog #577-3, Sigma Diagnostics, St. Louis, Mo., USA). To perform both assays, pancreatic juice was diluted with saline in proportion 1:2000. Activity of enzymes was expressed in units per 15 min (activity in pancreatic juice collected every 15 min).

For data set [2], the system named is pancreatic enzyme secretion. The settings on record: rat model, doses resulting in physiological plasma concentrations; cited from earlier work.
For data set [3] the following is noted: human, in vivo; cited from earlier work.
The nature of data set [4]: Amylin activity in vivo in treated test animals (hyperlactemia followed by hyperglycemia). The settings on record: e.g., provoking marked hyperlactemia followed by hyperglycemia.
Setting [5] is: Amylin 1 μg s.c. alone, no CCK-8.
Where [6] appears, read: Amylin 10 μg s.c. alone, no CCK-8.
The mark [7] stands for this setting: CCK-8 1 μg and Amylin 0.1 μg s.c.
Where [8] appears, read: CCK-8 1 μg and Amylin 0.3 μg s.c.
Where [9] appears, read: CCK-8 1 μg and Amylin 1.0 μg s.c.
The mark [10] stands for this setting: CCK-8 1 μg and Amylin 10.0 μg s.c.
[11] abbreviates: s.c. amylin with CCK-8 1 μg, dose-dependent.
Setting [12] is: ±0.09 log units, first ED50 sentence of b123.
[13] abbreviates: ±0.09 log units, second ED50 sentence of b123.

Where no end group is shown, it is not given here.

Method for soleus muscle: The tendons of the muscles are ligated before attachment to stainless steel clips. […] Flasks are sealed and gassed continuously with O2 and CO2 in the ratio 19:1 (v/v). After pre-incubation of muscles in this medium for 30 min at 37° C. in an oscillating water bath, the muscles strips are transferred to similar vials containing identical medium (except pyruvate) with added [U-^14C] glucose (0.5 μCi/ml) and insulin (100 μU/ml). […] At the end of the incubation period, muscles are blotted and rapidly frozen in liquid N2. The concentration of lactate in the incubation medium can be determined spectrophotometrically and [U-^14C]glucose incorporation in glycogen measured.
Male Harlan Sprague-Dawley rats of approximately 200 g mass were used in order to maintain mass of the split soleus muscle less than 40 mg. The animals were fasted for 4 hours prior to sacrifice by decapitation. The skin was stripped from the lower limb which was then pinned out on corkboard. The tendo achilles was cut just above os calcis and m. gastrocnemius reflected out from the posterior aspect of the tibia. […]
^14C-glycogen determination was performed in a 7 mL scintillation vial. […] The remaining glycogen was redissolved in 1 mL water and 4 mL scintillation fluid and counted for ^14C. […]

Usually EC50 stands for the concentration that produces a half-maximal response. For `CC[C@H](C)[C@H](NC(=O)[C@H](C)NC(=O)CNC(=O)[C@H](Cc1ccccc1)NC(=O)[C@H](CC(N)=O)NC(=O)[C@H](CC(N)=O)NC(=O)[C@H](CO)NC(=O)[C@H](CO)NC(=O)[C@H](Cc1c[nH]cn1)NC(=O)[C@@H](NC(=O)[C@H](CC(C)C)NC(=O)[C@H](Cc1ccccc1)NC(=O)[C@H](CC(N)=O)NC(=O)[C@H](C)NC(=O)[C@H](CC(C)C)NC(=O)[C@H](CCCNC(=N)N)NC(=O)[C@H](CCC(N)=O)NC(=O)[C@@H](NC(=O)[C@H](C)NC(=O)[C@@H]1CSSC[C@H](NC(=O)[C@@H](N)CCCCN)C(=O)N[C@@H](CC(N)=O)C(=O)N[C@@H]([C@@H](C)O)C(=O)N[C@@H](C)C(=O)N[C@@H]([C@@H](C)O)C(=O)N1)[C@@H](C)O)C(C)C)C(=O)N[C@@H](CC(C)C)C(=O)N[C@@H](CO)C(=O)N[C@@H](CO)C(=O)N[C@H](C(=O)N[C@@H](CC(N)=O)C(=O)N[C@H](C(=O)NCC(=O)N[C@@H](CO)C(=O)N[C@@H](CC(N)=O)C(=O)N[C@H](C(=O)N[C@@H](Cc1ccc(O)cc1)C(N)=O)[C@@H](C)O)C(C)C)[C@@H](C)O` [human amylin], the EC50 in the data set with soleus muscle lay within 1 to 10 nM.
With “Amylin: rat amylin (AR905-80) in Example II; amylin (AC128, Amylin Pharmaceuticals, Inc.) in Example I; 37 amino acid peptide hormone (KCNTATCATQRLANFLVHSSNNFGAILSSTNVGSNTY)”, the “reduction of elevated plasma amylase produced by caerulein” value in data set [1] is on record as “effectively reduce the elevated levels of plasma amylase”. Besides, in the data set with rat pancreas (setting [5]), the Amylase turned out to be 80.21 ± 35.71 U/45 min, the Lipase is 149.51 ± 86.79 U/45 min and the Pancreatic flow is given as 30 ± 6 μl/45 min. In the data set on rat pancreas (setting [6]), this compound showed an Amylase of 61.95 ± 24.51 U/45 min, a Lipase of 64.67 ± 21.59 U/45 min and a Pancreatic flow of 13 ± 4 μl/45 min. In the data set on rat pancreas (setting [7]), the Amylase turned out to be 340.98 ± 40.91 U/45 min; the Lipase amounted to 472.82 ± 58.67 U/45 min; the Pancreatic flow is given as 78 ± 8 μl/45 min; the “Amylase, % from CCK-8 stimulated” value is given as 25.83%. Besides, in the data set with rat pancreas (setting [7]), the “Lipase, % from CCK-8 stimulated” value was 34.65% and the “Pancreatic flow, % from CCK-8 stimulated” value is recorded as 21.21%. In the data set on rat pancreas (setting [8]), the Amylase is recorded as 271.73 ± 48.38 U/45 min; the Lipase was determined as 309.30 ± 74.31 U/45 min; the Pancreatic flow was determined as 67 ± 6 μl/45 min; the “Amylase, % from CCK-8 stimulated” value is 40.90%. Moreover, in the data set on rat pancreas (setting [8]), the “Lipase, % from CCK-8 stimulated” value was found to be 57.25% and the “Pancreatic flow, % from CCK-8 stimulated” value stood at 32.32%. Moreover, in the data set on rat pancreas (setting [9]), the Amylase is 193.93 ± 34.40 U/45 min; the Lipase is 232.41 ± 58.01 U/45 min; the Pancreatic flow is 58 ± 12 μl/45 min; the “Amylase, % from CCK-8 stimulated” value stood at 57.32%. In the data set on rat pancreas (setting [9]), the “Lipase, % from CCK-8 stimulated” value was 67.87% and the “Pancreatic flow, % from CCK-8 stimulated” value came out at 41.41%. In the data set on rat pancreas (setting [10]), the Amylase was 353.68 ± 78.85 U/45 min; the Lipase was determined as 370.65 ± 85.67 U/45 min; the Pancreatic flow is recorded as 90 ± 13 μl/45 min; the “Amylase, % from CCK-8 stimulated” value is 23.07%. In the data set with rat pancreas (setting [10]), the “Lipase, % from CCK-8 stimulated” value turned out to be 48.77% and the “Pancreatic flow, % from CCK-8 stimulated” value is 9.09%. In addition, in the data set on rat pancreas (setting [11]), the “inhibition of cholecystokinin stimulated pancreatic amylase activity (maximum)” value is reported as “up to 67.9%” and the “inhibition of secretion of cholecystokinin stimulated pancreatic lipase (maximum)” value was “up to 57.3%”. Besides, in the data set with rat pancreas (setting [12]), the “ED50 for suppression of pancreatic amylase activity” value was found to be 129 pmol/kg and the “ED50 for suppression of pancreatic lipase activity” value is 129 pmol/kg. In addition, in the data set with rat pancreas (setting [13]), the “ED50 for suppression of CCK-8 stimulated pancreatic amylase activity” value amounted to 123 pmol/kg and the “ED50 for suppression of CCK-8 stimulated pancreatic lipase activity” value is 123 pmol/kg. Further, in data set [2], the “effect on basal pancreatic enzyme secretion” value is given as “no effect”. The tolerability result in data set [3] was “well tolerated”.
On to “^28Pro-h-amylin (KCNTATCATQRLANFLVHSSNNFGAILPSTNVGSNTY)”, for which, in data set [4], the “amylin activity in vivo” value was “show amylin activity in vivo”.
In the data set with rat pancreas (CCK-8 1 μg s.c. alone), “cholecystokinin octapeptide [CCK-8, reference compound]” returned an Amylase of 459.76 ± 52.49 U/45 min, a Lipase of 723.56 ± 100.56 U/45 min and a Pancreatic flow of 99 ± 13 μl/45 min.
Consider “des-^1Lys-h-amylin (CNTATCATQRLANFLVHSSNNFGAILSSTNVGSNTY; ends and bridges not checked; cysteine pairing not given here; UniProt P10997 35-70, looked up, fragment)”, for which the “amylin activity in vivo” value in data set [4] was “show amylin activity in vivo”.
Turning to des-^1Lys^18Arg^25,28Pro-h-amylin, in data set [4], the “amylin activity in vivo” value was “show amylin activity in vivo”.
